Read-outs that look alike come from different tables or passages of the source.
How the values were obtained:
[1] = tested on: thromboxane A2 biosynthesis; experiment: Platelet malondialdehyde (MDA) production in vitro, human platelets in plasma, thrombin stimulated; format: cell-based; details: human platelet-rich plasma, thrombin 20 N.I.H. U/ml, 10 min pre-incubation at 37° C., 30 min reaction, 50% inhibition vs solvent
Protocol: (§1) MDA production by platelets in plasma, as an indicator of the thromboxane A2 biosynthesis, was evaluated spectrofluometrically. […] After 30 min at 37° C., the reaction was terminated by the addition of 1 ml of 10% (w/v) trichloroacetic acid. After isolation of the supernatant by centrifugation at 320 g for 20 min, the thiobarbituric acid reaction for MDA was performed using acid-hydrolyzed 1,1,3,3-tetramethoxypropane as a standard. The fluorescence of the samples at 553 nm after excitation at 510 nm was measured. The results were calculated as nM MDA/10^8 platelets/30 min and were expressed as a percentage inhibition produced by the compounds relative to the formation of MDA after thrombin stimulation in the solvent. For in vitro experiments, human platelets in plasma were used. Percentage inhibition was calculated versus the solvent value.

[2] = tested on: thromboxane A2 biosynthesis; experiment: Platelet malondialdehyde (MDA) production in vivo, male Wistar rats; details: Rattus norvegicus, read-out: MDA production in vivo ED50-values
Protocol: as §1, with “After isolation of the supernatant by centrifugation at 320 g for 20 min, the thiobarbituric acid reaction for MDA was performed using acid-hydrolyzed 1,1,3,3-tetramethoxypropane as a standard.” left out
For in vivo experiments male Wistar rats were fasted overnight. 2 Hours before blood sampling they were treated with the test compound solution/suspension or the solvent. […] ED50 -values were determined by probit analysis.

[3] = male Wistar rats fasted overnight, treated 2 hours before blood sampling, 50% inhibition relative to MDA values with solvent, probit analysis

Structure (SMILES) | IC50 [1] | ED50 [2, 3] | IC50 ([1]; Homo sapiens, Platelet) | ED50 ([2]; 2 h)
O=C(O)CCCCO/N=C(/c1cccnc1)c1cccc(C(F)(F)F)c1 [Compound 63, (E)-5-[[[(3-pyridinyl)[3-(trifluoromethyl)phenyl]methylen]amino]oxy]pentanoic acid] | 0.022 µM | 0.012 mg/kg | – | –
O=C(O)CCCCO/N=C(\c1ccccc1)c1cccnc1 [Compound 65] | 0.066 µM | 0.045 mg/kg | – | –
O=C(O)CCCCO/N=C(\Cc1ccccc1)c1cccnc1 [Compound 68] | 0.075 µM | 1 mg/kg | – | –
O=C(O)CCCCON=C(c1cccnc1)c1cccc2ccccc12 [Compound 74] | 0.023 µM | 0.023 mg/kg | – | –
COc1ccc(C(=NOCCCCC(=O)O)c2cccnc2)cc1OC [Compound 82] | 0.11 µM | 0.056 mg/kg | – | –
CCCC/C(=N\OCCCCC(=O)O)c1cccnc1 [Compound 86] | 0.063 µM | > 0.16 mg/kg | – | –
COC(OC)c1ccccc1/C(=N\OCCCCC(=O)O)c1cccnc1 [Compound 87] | 0.024 µM | > 0.16 mg/kg | – | –
O=C(O)CCCCO/N=C(/c1cccnc1)c1cc(C(F)(F)F)cc(C(F)(F)F)c1 [Compound 92] | 0.033 µM | 0.01 mg/kg | – | –
O=C(O)CCCCO/N=C(/c1cccnc1)c1cccc2ccccc12 [Compound 93, (E)-5-[[[(1-naphthalenyl)(3-pyridinyl)methylen]amino]oxy]pentanoic acid] | 0.01 µM | 0.014 mg/kg | – | –
O=C(O)CCCCON=C(c1cccnc1)c1ccccc1C(F)(F)F [Compound 94] | 0.032 µM | – | – | –
O=C([O-])CCCCO/N=C(/c1cccnc1)c1cccc(C(F)(F)F)c1.[Na+] [Compound 121, sodium (E)-5-[[[(3-pyridinyl)[3-(trifluoromethyl)phenyl]methylen]amino]oxy]pentanoate] | – | – | 0.014 µM | 0.015 mg/kg
O=C([O-])CCCCO/N=C(\c1ccccc1)c1cccnc1.[Na+] [Compound 122, sodium (E)-5-[[[phenyl(3-pyridinyl)methylen]amino]oxy]pentanoate] | – | – | 0.081 µM | < 0.16 mg/kg
O=C(O)CCCCO/N=C(/c1cccnc1)c1cccc2ccccc12 [Compound 123, sodium (E)-5-[[[(1-naphthalenyl)(3-pyridinyl)methylen]amino]oxy]pentanoate] | – | – | 0.018 µM | –

Continued, in another order:

IC50 [1] | Structure (SMILES) | ED50 [2, 3] | IC50 ([1]; Homo sapiens, Platelet) | ED50 ([2]; 2 h)
0.1 µM | O=C(O)CCCCON=C(c1ccccc1)c1cccnc1 [Compound 4, (E+Z)-5-[[[phenyl(3-pyridinyl)methylen]amino]oxy]pentanoic acid] | 0.059 mg/kg | – | –
< 0.1 µM | CCOC(=O)CCCCO/N=C(\c1ccccc1)c1cccnc1 [Compound 9] | – | – | –
0.1 µM | COc1ccc(C(=NOCCCCC(=O)O)c2cccnc2)cc1 [Compound 69] | 0.17 mg/kg | – | –
0.18 µM | O=C(O)CCCCON=C(c1cccnc1)c1cccnc1 [Compound 70] | 1.2 mg/kg | – | –
0.12 µM | Cc1ccc(C(=NOCCCCC(=O)O)c2cccnc2)cc1 [Compound 72] | 0.041 mg/kg | – | –
0.3 µM | O=C(O)CCCCON=C(c1ccc(F)cc1)c1cccnc1 [Compound 73] | 0.2 mg/kg | – | –
0.12 µM | O=C(O)CCCCO/N=C(/c1cccnc1)c1cccs1 [Compound 76] | 0.068 mg/kg | – | –
0.24 µM | O=C(O)CCCCON=C(c1cccnc1)c1ccc2ccccc2c1 [Compound 78] | 0.044 mg/kg | – | –
0.11 µM | O=C(O)CCCCO/N=C(/c1cccnc1)c1ccsc1 [Compound 84] | 0.17 mg/kg | – | –
0.043 µM | Cc1cccc(C(=NOCCCCC(=O)O)c2cccnc2)c1 [Compound 89] | 0.02 mg/kg | – | –
0.024 µM | Cc1cccc(/C(=N\OCCCCC(=O)O)c2cccnc2)c1 [Compound 90, (E)-5-[[[(3-methylphenyl)(3-pyridinyl)methylen]amino]oxy]pentanoic acid] | 0.013 mg/kg | – | –
0.1 µM | O=Cc1cccc(C(=NOCCCCC(=O)O)c2cccnc2)c1 [Compound 116, (E+Z)-5-[[[(3-formylphenyl)(3-pyridinyl)methylen]amino]oxy]pentanoic acid] | – | – | –

— patent US4963573A, “[[[(3-pyridinyl)methylen]amino]oxy]alkanoic acids and esters” (Janssen Pharmaceutica N.V., priority 1989, dated 1990)
